Earlier results as cited in patent publication US20230126271A1, “DEGRADER-ANTIBODY CONJUGATES AND METHODS OF USING SAME” (Anglex, Inc., priority 2020, published 2023).

Experiments:
[1] = in vivo
[2] = in vivo; remark: listed apart in the source

COc1ccc(/C=C\c2cc(OC)c(OC)c(OC)c2)cc1OP(=O)(O)O [CA4P, Combretastatin]
patients who experienced heart attacks while being treated [1]: seven

CN(C)CC#Cc1ccc(OCCCc2sc(N3CCc4cccc(C(=O)Nc5nc6ccccc6s5)c4C3)nc2C(=O)O)c(F)c1 [A115463]
toxicity in the clinic [2]: on-target and dose-limiting thrombocytopenia

CC1(C)CCC(c2ccc(Cl)cc2)=C(CN2CCN(c3ccc(C(=O)NS(=O)(=O)c4ccc(N[C@H](CCN5CCOCC5)CSc5ccccc5)c(S(=O)(=O)C(F)(F)F)c4)cc3)CC2)C1 [ABT 263]
toxicity in the clinic [2]: on-target and dose-limiting thrombocytopenia
